Measurements: article PMC10352257, “In vivo effects of the alpha-synuclein misfolding inhibitor minzasolmin supports clinical development in Parkinson’s disease” (NPJ Parkinson's Disease, 2023)
“Also recorded” adds a separate entry of the source.

How the values were obtained:
[1] = system: proteinase K-resistant ASYN; experiment: Immunohistochemical evaluation of proteinase K-resistant ASYN in brain sections, 3-month study; assay type: in vivo, mouse; conditions: for change in proteinase K-resistant ASYN immunolabeling vs vehicle-treated transgenic mice: striatum (P < 0.0001); for proteinase K-resistant ASYN immunolabeling, mean: Line 61 tg, 3 months, adjusted P <0.0001
Text: (§1) A transgenic mouse model of Parkinson’s disease overexpressing human wild-type ASYN under the murine Thy-1 promoter on a mixed C57Bl/6 background was used in the present studies (commonly referred to Line 61)[49]. The Line 61 transgenic mouse model of Parkinson’s disease develops extensive accumulation of ASYN in areas relevant to Parkinson’s disease[49]–[51], neurodegeneration (as evidenced by loss of tyrosine hydroxylase[52],[53] and dopamine transporter immunoreactivity[18] in the striatum), inflammation, and both motor and non-motor functional deficits. Multiple cohorts of mice were transferred from the University of California, San Diego to a Neuropore-funded AAALAC-accredited vivarium facility per a laboratory service agreement between Neuropore Therapies, Inc. and the laboratory of Dr. Eliezer Masliah under institutional animal care and use committee (IACUC) Protocol S02221. All in vivo testing was conducted by Neuropore personnel under Explora Biosciences animal care and use protocol (ACUP) number E15-016-2. Three-month-old male transgenic and age-matched non-transgenic littermate control mice were used and housed up to 5 per cage. Animals received free access to food and water prior to the experiment. The vivarium ambient room temperature was monitored daily and kept within a range of 68–72 degrees Fahrenheit. Animals were kept on a 12:12 diurnal light cycle, with lights on at 0600.
Minzasolmin was dissolved in a vehicle solution consisting of 40% Captisol (CyDex Pharmaceuticals, Inc.; Kansas, USA) in sterile water and administered at a volume of 0.1 ml/20 g of body weight. Animals received a Monday–Friday daily intraperitoneal injection of vehicle, or 1 or 5 mg/kg minzasolmin for approximately 90 days. Animals received treatment up to and including a final injection 1 h prior to euthanasia. All study solutions were blind coded and experimenters were blinded to genotype and treatment group assignments for the duration of the study, ex vivo evaluations (i.e., neuropathology sample processing and imaging, videotape scoring) and through penultimate data analyses (i.e., data quality control with documented exclusions prior to unblinding; unblinding required for a priori pairwise comparisons).
All subjects were euthanized within 1 h of the last treatment and brain and blood were collected. Tissue processing and imaging methods were conducted as described previously[17],[18],[52] and performed under a lab service agreement between UCSD and Neuropore Therapies. All samples were blind coded to genotype and treatment group throughout immune-histological processing and imaging. The right hemibrain was post-fixed in phosphate-buffered 4% paraformaldehyde (pH 7.4) at 4 °C for 48 and then serially sectioned into […] thick […] sections using a vibratome. Sections were free-floated and incubated overnight at 4 °C with primary antibodies. To confirm the specificity of primary antibodies, control experiments were performed in which sections were incubated overnight in the absence of primary antibody, pre-immune serum, or primary antibody pre-adsorbed for 48 h with 20-fold excess of the corresponding peptide. Tissue collection, processing, and imaging methods were conducted as described previously. Briefly, the right hemibrain was post-fixed in phosphate-buffered 4% paraformaldehyde (pH 7.4) at 4 °C for 48 h, and then serially sectioned into 40 µm thick coronal sections using a vibratome. Sections were free-floated and incubated overnight at 4 °C with primary antibodies. To confirm the specificity of primary antibodies, control experiments were performed in which sections were incubated overnight in the absence of primary antibody (data not shown). Immunolabeled sections were imaged with a Zeiss 63× (N.A. 1.4) objective on an Axiovert 35 microscope (Zeiss, Germany). Immunolabeling was evaluated as a corrected optical density across a field of view. […]

Line 61 transgenic mice = experiment: Tolerability in the 3-month administration study; assay type: in vivo; conditions: 1 or 5 mg/kg i.p. once daily for 3 months; no apparent adverse effects on subject health
Text: as §1, with “[…].” for “Three-month-old male transgenic and age-matched non-transgenic littermate control mice were used and housed up to 5 per cage.”, “0600. […]” for “0600.”

## CCCC[C@H](Cc1c[nH]c2ccccc12)NC(=O)c1cnc(N2CCN(C)CC2)s1 [minzasolmin]
[1]; 1 mg/kg, cortex, hippocampus
  change in proteinase K-resistant ASYN immunolabeling vs vehicle-treated transgenic mice: statistically significant reductions; also recorded: statistically significant decreases
[1]; 5 mg/kg, cortex, hippocampus
  change in proteinase K-resistant ASYN immunolabeling vs vehicle-treated transgenic mice: statistically significant reductions; also recorded: statistically significant decreases
[1]; any examined region
  effect of dose on proteinase K-resistant ASYN, 1 vs. 5 mg/kg: no statistically significant effects
[1]; cortex, 1 mg/kg, Line 61 tg/Vehicle 242.5
  proteinase K-resistant ASYN immunolabeling, mean: 180.6
[1]; cortex, 5 mg/kg, Line 61 tg/Vehicle 242.5
  proteinase K-resistant ASYN immunolabeling, mean: 187.3
[1]; hippocampus, 1 mg/kg, Line 61 tg/Vehicle 270.1
  proteinase K-resistant ASYN immunolabeling, mean: 176.6
[1]; hippocampus, 5 mg/kg, Line 61 tg/Vehicle 270.1
  proteinase K-resistant ASYN immunolabeling, mean: 178.3
[1]; striatum, 1 mg/kg, Line 61 tg/Vehicle 266.7
  proteinase K-resistant ASYN immunolabeling, mean: 176.1
[1]; striatum, 5 mg/kg, Line 61 tg/Vehicle 266.7
  proteinase K-resistant ASYN immunolabeling, mean: 182.2
Line 61 transgenic mice
  tolerability of treatments for the duration of the experiment: well tolerated
